Columns and labels:
[1] = Rubbing a portion between thumb and finger (hygroscopicity); type: physicochemical; details: rubbed between the thumb and finger; moisture from thumb, finger and surrounding air
Source text: Sample 1 was further compared to Sample 2 by rubbing a portion of each between the thumb and finger.

[2] = Particle size; type: physicochemical
Source text: The particle size found in Sample 1 and Sample 2 was about 70 mesh.

[3] = Addition to stimulated gastric solution (stability in an acid environment); type: physicochemical; details: added to a stimulated gastric solution
Source text: Sample 1 was similarly added to a stimulated gastric solution.

[4] = Shaking the powder in a plastic bag (electrostatic behaviour); type: physicochemical; details: shaken in a plastic bag
Experimental: A 10:1 mixture of copper glycinate to terra alba (CaSO4) [Sample 1] was prepared and shaken together in a plastic bag. Next, a pure copper glycinate without the presence of terra alba [Sample 2] was also prepared and shaken in a plastic bag.

[5] = zero ionic strength; reaction M^2+ + (Gly)^- <-> M(Gly)^+; cited from earlier work

Row | Molecule | hygroscopicity: balling up with moisture [1] | particle size [2] | color change in stimulated gastric solution (stability in acid environment) [3] | electrostatic behaviour: product sticking to the walls of the bag [4] | log of the equilibrium constant [5]
1 | NCC(=O)[O-].NCC(=O)[O-].[Cu+2] [Sample 2, copper glycinate] | quickly balled up with moisture | about 70 mesh | caused the product to change color | a blue haze of product stuck the walls of the bag | –
2 | copper | – | – | – | – | 8.56

Reference: patent publication US6458981B1, “Composition and method for preparing amino acid chelate hydroxides free of interfering ions” (Albion International, Inc., priority 2000, dated 2002)
